Structures can show the parent of a compound that is named as a salt.
Experiments:
[1] = Evaluation of drug sorption (drug residual rate); format: physicochemical; details: 10 μmol/L drug solution, 0.5 ml per well, 23° C., 2 days; average of three wells
Protocol: Thereafter, the drug solutions were recovered. The concentrations of the recovered drug solutions were measured by a fluorescence analysis method or LC/MS. The drug residual rate, which was the concentration of the measured recovered drug solution with respect to the concentration of the drug solution before added to the vessel, was calculated. The average value of the drug residual rate in three wells was given. For the drugs 1 to 3 for evaluation, concentration analysis was performed by a fluorescence analysis method. For the drugs 4 to 8 for evaluation, concentration analysis was performed by LC/MS. <Fluorescence Analysis Conditions> • Evaluation apparatus: FP-6600 (spectrofluorometer, manufactured by JASCO Corporation) • Used cell: Micro cell made of quartz • Bandwidth: excitation side: 5 nm, fluorescence side: 6 nm • Sensitivity (PMT voltage): 400 V • Excitation wavelength: rhodamine B 555 nm <LC/MS Conditions> • Apparatus: Acquity UPLC I-class system/TQ-S micro(water) • Ionization method: electrospray ionization (ESI), positive and negative ion detection A drug sorption test was performed on the 24-well TCPS culture vessel (manufactured by Corning Incorporated, made of polystyrene (PS)) used in Comparative Example 4 and the 24-well PDMS culture vessel (product name: […] (trademark) model number: […]

[2] = Evaluation of drug sorption (drug residual rate); format: physicochemical; details: 10 μmol/L drug solution, 0.5 ml per well, 23° C., 2 days; average of three wells; remark: listed apart in the source
Protocol: Thereafter, the drug solutions were recovered. The concentrations of the recovered drug solutions were measured by a fluorescence analysis method or LC/MS. The drug residual rate, which was the concentration of the measured recovered drug solution with respect to the concentration of the drug solution before added to the vessel, was calculated. The average value of the drug residual rate in three wells was given. For the drugs 1 to 3 for evaluation, concentration analysis was performed by a fluorescence analysis method.

Molecule | drug residual rate, PDMS Vessel (Comparative Example 8) [1] | drug residual rate, PS Vessel (Comparative Example 7) [1] | drug residual rate, 4-methyl-1-pentene Polymer Vessel (Example 11) [2]
CCN(CC)c1ccc2c(-c3ccccc3C(=O)O)c3ccc(=[N+](CC)CC)cc-3oc2c1.[Cl-] [Rhodamine B, rhodamine B] | 2% | 90% | 98%
rhodamine 123 | 58% | 79% | 99%
CC(C)NCC(O)c1ccc(O)c(O)c1 (stereo not drawn) [Isoproterenol Hydrochloride, isoproterenol hydrochloride] | 1% | 65% | 63%
Cc1oncc1C(=O)Nc1ccc(C(F)(F)F)cc1 [Leflunomide, leflunomide] | 2% | 70% | 68%
Clc1ccccc1CN1CCc2sccc2C1 [Ticlopidine Hydrochloride, ticlopidine hydrochloride] | 1% | 67% | 64%
